Measured values: ChEMBL document CHEMBL3217432, “Oxazole phosphonic acids as fructose 1,6-bisphosphatase inhibitors with potent glucose-lowering activity” (Medchemcomm, 2011)

What was measured:
[1] = target: T1, Fructose-1,6-bisphosphatase 1 (Homo sapiens, UniProt P09467); assay: Inhibition of human liver FBPase
T1 sequence (P09467 whole entry): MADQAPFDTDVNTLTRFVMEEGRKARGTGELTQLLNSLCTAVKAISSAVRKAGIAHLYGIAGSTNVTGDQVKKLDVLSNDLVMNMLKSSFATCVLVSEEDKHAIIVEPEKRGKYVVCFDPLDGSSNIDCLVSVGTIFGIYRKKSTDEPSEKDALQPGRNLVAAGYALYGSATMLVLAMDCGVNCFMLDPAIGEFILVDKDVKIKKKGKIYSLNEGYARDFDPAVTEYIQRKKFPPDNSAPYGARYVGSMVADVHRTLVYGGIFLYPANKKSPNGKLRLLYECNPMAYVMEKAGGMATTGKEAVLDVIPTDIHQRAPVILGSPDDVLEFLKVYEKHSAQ

[2] = target: T2, Fructose-1,6-bisphosphatase 1 (Rattus norvegicus, UniProt P19112); assay: Inhibition of rat liver FBPase
T2 sequence (P19112 whole entry): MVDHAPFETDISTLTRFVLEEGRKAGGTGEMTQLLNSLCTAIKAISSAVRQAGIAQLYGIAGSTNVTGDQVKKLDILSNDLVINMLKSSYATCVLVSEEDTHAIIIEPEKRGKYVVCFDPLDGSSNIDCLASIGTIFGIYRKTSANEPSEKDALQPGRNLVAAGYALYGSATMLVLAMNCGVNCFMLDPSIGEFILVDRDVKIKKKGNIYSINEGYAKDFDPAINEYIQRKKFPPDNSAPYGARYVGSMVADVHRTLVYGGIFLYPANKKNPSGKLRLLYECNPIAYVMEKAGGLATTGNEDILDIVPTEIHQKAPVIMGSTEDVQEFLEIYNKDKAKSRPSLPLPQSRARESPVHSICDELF

Rattus norvegicus = assay: Antidiabetic activity in rat assessed as reduction of blood glucose level at 10 mg/kg, iv relative to control; format: functional; design: scale not given: the % may be the effect or the level left

Row | IC50 [1] [nM] | IC50 [2] [nM] | SMILES | Activity (Rattus norvegicus) [%]
1 | 4000 | – | Nc1nc(-c2ccc(P(=O)(O)O)o2)c(Sc2ccccc2)o1 | –
2 | 30 | 2300 | CCSC(=O)c1oc(N)nc1-c1ccc(P(=O)(O)O)o1 | 51
3 | 1000 | – | CNC(=O)c1oc(N)nc1-c1ccc(P(=O)(O)O)o1 | 0
4 | 855 | – | CC(C)(C)C(=O)c1oc(N)nc1-c1ccc(P(=O)(O)O)o1 | –
5 | 210 | 2700 | CCCCCc1oc(N)nc1-c1ccc(P(=O)(O)O)o1 | 7
6 | 320 | 5500 | Nc1nc(-c2ccc(P(=O)(O)O)o2)c(CC2CCCCC2)o1 | –
7 | 160 | 2500 | Nc1nc(-c2ccc(P(=O)(O)O)o2)c(-c2ccccc2)o1 | 8
8 | 900 | 10000 | Nc1nc(-c2ccc(P(=O)(O)O)o2)c(Cc2ccccc2)o1 | –
9 | 260 | 3750 | Nc1nc(-c2ccc(P(=O)(O)O)o2)c(Cc2cccs2)o1 | –
10 | – | – | CC(C)Cc1oc(N)nc1-c1ccc(P(=O)(O)O)o1 | 51
11 | 10000 | – | Nc1nc(-c2ccc(P(=O)(O)O)o2)co1 | –
12 | 140 | 3000 | C=CCc1oc(N)nc1-c1ccc(P(=O)(O)O)o1 | 19
13 | 170 | 2300 | CCCCc1oc(N)nc1-c1ccc(P(=O)(O)O)o1 | 10
14 | 110 | 900 | CC(C)Sc1oc(N)nc1-c1ccc(P(=O)(O)O)o1 | 61
15 | 120 | 1700 | CC(C)(C)Sc1oc(N)nc1-c1ccc(P(=O)(O)O)o1 | –
16 | – | – | CCCSc1oc(N)nc1-c1ccc(P(=O)(O)O)o1 | 61
17 | 67 | 3900 | COC(=O)c1oc(N)nc1-c1ccc(P(=O)(O)O)o1 | 0
18 | – | – | CCOC(=O)c1oc(N)nc1-c1ccc(P(=O)(O)O)o1 | 18

Row | IC50 [1] [nM] | IC50 [2] [nM] | SMILES | Activity (Rattus norvegicus) [%]
19 | 40 | – | CC(C)OC(=O)c1oc(N)nc1-c1ccc(P(=O)(O)O)o1 | 7
20 | 85 | 2250 | Nc1nc(-c2ccc(P(=O)(O)O)o2)c(C(=O)OCc2ccccc2)o1 | 0
21 | 10000 | – | CC(C)Cc1oc(O)nc1-c1ccc(P(=O)(O)O)o1 | –
22 | 1900 | – | CC(C)Cc1ocnc1-c1ccc(P(=O)(O)O)o1 | –
23 | 2100 | – | CC(C)Cc1oc(N(C)C)nc1-c1ccc(P(=O)(O)O)o1 | –
24 | 2200 | – | CC(C)Cc1oc(C(C)C)nc1-c1ccc(P(=O)(O)O)o1 | –
25 | 4300 | – | CNc1nc(-c2ccc(P(=O)(O)O)o2)c(CC(C)C)o1 | –
26 | 950 | – | CCc1nc(-c2ccc(P(=O)(O)O)o2)c(CC(C)C)o1 | –
27 | 10000 | – | CCNc1nc(-c2ccc(P(=O)(O)O)o2)c(CC(C)C)o1 | –
28 | 6700 | – | C=Cc1nc(-c2ccc(P(=O)(O)O)o2)c(CC(C)C)o1 | –
29 | 420 | – | Cc1oc(N)nc1C(=O)OCP(=O)(O)O | –
30 | 380 | – | CCc1oc(N)nc1C(=O)OCP(=O)(O)O | –
31 | 280 | – | CCCc1oc(N)nc1C(=O)OCP(=O)(O)O | –
32 | 580 | – | CC(C)c1oc(N)nc1C(=O)OCP(=O)(O)O | –
33 | 250 | 1700 | CCCCc1oc(N)nc1C(=O)OCP(=O)(O)O | 22
34 | 350 | – | CCCCCc1oc(N)nc1C(=O)OCP(=O)(O)O | –
35 | 10000 | – | Cc1nc(C(=O)OCP(=O)(O)O)c(C(F)(F)F)o1 | –
36 | 10000 | – | O=C(OCP(=O)(O)O)c1ncoc1-c1ccccc1 | –

Row | SMILES | IC50 [1] [nM] | IC50 [2] [nM] | Activity (Rattus norvegicus) [%]
37 | Nc1nc(C(=O)OCP(=O)(O)O)co1 | 7000 | – | –
